Test results reported in patent US20260355196A1, “INHIBITORS AND DEGRADERS OF PIP4K PROTEIN” (Larkspur Biosciences, Inc., priority 2023, published 2026).

Each compound was assayed against T1, PIP4K2C (Homo sapiens, UniProt Q8TBX8) (assay: HiBiT PIP4K2C degradation assay in MOLT-4 cells (endogenous PIP4K2C C-terminally tagged with HiBiT)). Conditions: 24 hours incubation, MOLT-4, top concentration 10 micromolar; read-out: HiBIT-degradation MOLT4 PIP4k2C 24 hours DC50.
T1 sequence (Q8TBX8 1-421): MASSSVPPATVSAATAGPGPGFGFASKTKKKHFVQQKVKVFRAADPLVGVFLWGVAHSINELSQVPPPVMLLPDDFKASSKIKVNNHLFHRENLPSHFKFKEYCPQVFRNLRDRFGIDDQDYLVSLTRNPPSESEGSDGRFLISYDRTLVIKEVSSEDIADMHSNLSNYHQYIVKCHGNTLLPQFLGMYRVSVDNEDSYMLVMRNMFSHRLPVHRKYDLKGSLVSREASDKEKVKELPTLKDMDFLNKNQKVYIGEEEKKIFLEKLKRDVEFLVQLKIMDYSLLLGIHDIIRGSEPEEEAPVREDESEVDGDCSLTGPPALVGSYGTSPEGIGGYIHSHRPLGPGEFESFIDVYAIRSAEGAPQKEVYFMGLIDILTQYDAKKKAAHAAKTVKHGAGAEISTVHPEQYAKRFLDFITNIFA
Format: cell-based
Set-up: untagged in primary human PBMCs and monocyte-derived dendritic cells
Source text: Example B-2: HiBiT PIP4K2C degradation assay
Materials: MOLT-4, a human T lymphoblast cell line (see https://www.atcc.org/products/crl-1582, herein incorporated by reference in its entirety), was genetically engineered using CRISPR-Cas9 by Synthego Corporation (Redwood City, CA) to C-terminally tag endogenous PIP4K2C with HiBiT peptide. Following clonal selection, genotype was confirmed by Sanger sequencing. MO LT-4 were maintained using RPMI-1640 medium from Gibco (Grand Island, NY, catalog number 11875-085) supplemented with 10% fetal bovine serum (FBS) from VWR (Philadelphia, PA, catalog number 97068-085). For HiBiT assays the cells were resuspended in RPMI-1640 medium without phenol read from Gibco (Grand Island, NY, catalog number 11835-030) supplemented with 10% FBS. Nano-Glo® HiBiT Lytic Assay System was purchased from Promega (Madison, WI, Catalog number N3030). Cell culture flasks and 384-well microplates were purchased from Corning (Glendale, AZ).
To study PIP4K2C degradation, 384-well plates were plated with a 10-point dose response curve, 3-fold dilution, in duplicate with a top starting concentration of 10 micromolar. Subsequently 22,500 cells were added to each well and incubated at 37 C in 5% C02 for 24 hours or 6 hours. At the end of the incubation time, cells were treated with the Nano-Glo® HiBiT Lytic Detection System following the manufacturer's instructions. Luminescence was measured with a PHERAstar FSX plate reader (BMG Labtech, Cary, NC). The Levenberg-Marquardt algorithm was used to fit a Hill equation to dose-response data to calculate DC50 values (see Table 6).

Structure (SMILES)	DC50 [nM]
O=C1CCC(Nc2ccc(C3CCN(CC4CCN(C(=O)[C@H]5CCC[C@@H](Nc6ncc(Cl)c(-c7cccc(-c8ccccc8)c7)n6)C5)CC4)CC3)cc2)C(=O)N1 (relative stereo) [Compound 65, cis-3-((4-(1-((1-(3-((4-([1,1′-biphenyl]-3-yl)-5-chloropyrimidin-2-yl)amino)cyclohexane-1-carbonyl)piperidin-4-yl)methyl)piperidin-4-yl)phenyl)amino)piperidine-2,6-dione]	< 500
O=C1CCC(N2Cc3cc(OC4CCN(CC5CCN(C(=O)[C@H]6CCC[C@@H](Nc7ncc(Cl)c(-c8cccc(-c9ccccc9)c8)n7)C6)CC5)CC4)ccc3C2=O)C(=O)N1 (relative stereo) [Compound 76, cis-3-(5-((1-((1-(3-((4-([1,1′-biphenyl]-3-yl)-5-chloropyrimidin-2-yl)amino)cyclohexane-1-carbonyl)piperidin-4-yl)methyl)piperidin-4-yl)oxy)-1-oxoisoindolin-2-yl)piperidine-2,6-dione]	< 500
O=C1CCC(N2Cc3cc(OC4CCN(CCN5CCN(C(=O)[C@H]6CCC[C@@H](Nc7ncc(Cl)c(-c8cccc(-c9ccccc9)c8)n7)C6)CC5)CC4)ccc3C2=O)C(=O)N1 (relative stereo) [Compound 80, cis-3-(5-((1-(2-(4-(3-((4-([1,1′-biphenyl]-3-yl)-5-chloropyrimidin-2-yl)amino)cyclohexane-1-carbonyl)piperazin-1-yl)ethyl)piperidin-4-yl)oxy)-1-oxoisoindolin-2-yl)piperidine-2,6-dione]	< 500
O=C1CCC(N2Cc3cc(OC4CCN(C(=O)CC5CCN(C(=O)[C@H]6CCC[C@@H](Nc7ncc(Cl)c(-c8cccc(-c9ccccc9)c8)n7)C6)CC5)CC4)ccc3C2=O)C(=O)N1 (relative stereo) [Compound 81, cis-3-(5-((1-(2-(1-(3-((4-([1,1′-biphenyl]-3-yl)-5-chloropyrimidin-2-yl)amino)cyclohexane-1-carbonyl)piperidin-4-yl)acetyl)piperidin-4-yl)oxy)-1-oxoisoindolin-2-yl)piperidine-2,6-dione]	< 500
O=C1CCC(N2Cc3cc(OC4CCN(C(=O)CN5CCN(C(=O)[C@H]6CCC[C@@H](Nc7ncc(Cl)c(-c8cccc(-c9ccccc9)c8)n7)C6)CC5)CC4)ccc3C2=O)C(=O)N1 (relative stereo) [Compound 82, cis-3-(5-((1-(2-(4-(3-((4-([1,1′-biphenyl]-3-yl)-5-chloropyrimidin-2-yl)amino)cyclohexane-1-carbonyl)piperazin-1-yl)acetyl)piperidin-4-yl)oxy)-1-oxoisoindolin-2-yl)piperidine-2,6-dione]	< 500
O=C1CCC(Nc2ccc(C3CCN(CC(=O)N4CCC5(C4)CN(C(=O)[C@H]4CCC[C@@H](Nc6ncc(Cl)c(-c7cccc(-c8ccc(F)cc8)c7)n6)C4)C5)CC3)c(F)c2)C(=O)N1 (relative stereo) [Compound 284, cis-3-((4-(1-(2-(2-(3-((5-chloro-4-(4′-fluoro-[1,1′-biphenyl]-3-yl)pyrimidin-2-yl)amino)cyclohexane-1-carbonyl)-2,6-diazaspiro[3.4]octan-6-yl)-2-oxoethyl)piperidin-4-yl)-3-fluorophenyl)amino)piperidine-2,6-dione]	< 500

Second part, the compound after the results:

DC50 [nM]	Structure (SMILES)
< 500	O=C1CCC(Nc2ccc(C3CCN(CCC4CCN(C(=O)[C@H]5CCC[C@@H](Nc6ncc(Cl)c(-c7cccc(-c8ccccc8)c7)n6)C5)CC4)CC3)cc2)C(=O)N1 (relative stereo) [Compound 64, cis-3-((4-(1-(2-(1-(3-((4-([1,1′-biphenyl]-3-yl)-5-chloropyrimidin-2-yl)amino)cyclohexane-1-carbonyl)piperidin-4-yl)ethyl)piperidin-4-yl)phenyl)amino)piperidine-2,6-dione]
< 500	O=C1CCC(N2Cc3cc(OC4CCN(CCC5CCN(C(=O)[C@H]6CCC[C@@H](Nc7ncc(Cl)c(-c8cccc(-c9ccccc9)c8)n7)C6)CC5)CC4)ccc3C2=O)C(=O)N1 (relative stereo) [Compound 79, cis-3-(5-((1-(2-(1-(3-((4-([1,1′-biphenyl]-3-yl)-5-chloropyrimidin-2-yl)amino)cyclohexane-1-carbonyl)piperidin-4-yl)ethyl)piperidin-4-yl)oxy)-1-oxoisoindolin-2-yl)piperidine-2,6-dione]
< 500	Cn1c(=O)n(C2CCC(=O)NC2=O)c2ccc(C3CCN(CCC4CCN(C(=O)[C@H]5CCC[C@@H](Nc6ncc(Cl)c(-c7cccc(-c8ccc(F)cc8)c7)n6)C5)CC4)CC3)cc21 (relative stereo) [Compound 279, cis-3-(5-(1-(2-(1-(3-((5-chloro-4-(4′-fluoro-[1,1′-biphenyl]-3-yl)pyrimidin-2-yl)amino)cyclohexane-1-carbonyl)piperidin-4-yl)ethyl)piperidin-4-yl)-3-methyl-2-oxo-2,3-dihydro-1H-benzo[d]imidazol-1-yl)piperidine-2,6-dione]
< 500	Cn1c(=O)n(C2CCC(=O)NC2=O)c2ccc(C3CCN(CCC4CCN(C(=O)[C@H]5CCC[C@@H](Nc6ncc(F)c(-c7cccc(-n8ccccc8=O)c7)n6)C5)CC4)CC3)cc21 (relative stereo) [Compound 291, cis-3-(5-(1-(2-(1-(3-((5-fluoro-4-(3-(2-oxopyridin-1(2H)-yl)phenyl)pyrimidin-2-yl)amino)cyclohexane-1-carbonyl)piperidin-4-yl)ethyl)piperidin-4-yl)-3-methyl-2-oxo-2,3-dihydro-1H-benzo[d]imidazol-1-yl)piperidine-2,6-dione]
> 5000	O=C1CCC(Oc2ccc(N3CCC(O)(CC(=O)N4CCN(C(=O)[C@H]5CCC[C@@H](Nc6ncc(Cl)c(-c7cccc(-c8ccc(F)cc8)c7)n6)C5)CC4)CC3)c(F)c2)C(=O)N1 (relative stereo) [Compound 292, cis-3-(4-(4-(2-(4-(3-((5-chloro-4-(4′-fluoro-[1,1′-biphenyl]-3-yl)pyrimidin-2-yl)amino)cyclohexane-1-carbonyl)piperazin-1-yl)-2-oxoethyl)-4-hydroxypiperidin-1-yl)-3-fluorophenoxy)piperidine-2,6-dione]
< 500	O=C1CCC(Nc2ccc(N3CCC(N4CCC(CNC(=O)[C@H]5CCC[C@@H](Nc6ncc(F)c(-c7cccc(-n8ccccc8=O)c7)n6)C5)CC4)CC3)cc2)C(=O)N1 (relative stereo) [Compound 297, cis-N-((1′-(4-((2,6-dioxopiperidin-3-yl)amino)phenyl)-[1,4′-bipiperidin]-4-yl)methyl)-3-((5-fluoro-4-(3-(2-oxopyridin-1(2H)-yl)phenyl)pyrimidin-2-yl)amino)cyclohexane-1-carboxamide]
< 500	Cn1nc(C2CCC(=O)NC2=O)c2ccc(C3CCN(CCC4CCN(C(=O)[C@H]5CCC[C@@H](Nc6ncc(F)c(-c7cccc(-n8ccccc8=O)c7)n6)C5)CC4)CC3)cc21 (relative stereo) [Compound 298, 3-(6-(1-(2-(1-(cis-3-((5-fluoro-4-(3-(2-oxopyridin-1(2H)-yl)phenyl)pyrimidin-2-yl)amino)cyclohexane-1-carbonyl)piperidin-4-yl)ethyl)piperidin-4-yl)-1-methyl-1H-indazol-3-yl)piperidine-2,6-dione]
